In one test the target is T1, Kir6.2/SUR1 (Homo sapiens, UniProt Q09428+Q14654).
T1 construct: gene KCNJ11; full-length human subunits co-expressed stably in HEK293 cells; GenScript vectors; four Kir6.2 plus four SUR1
The experiment in a line: thallium-flux fluorescence assay (FLIPR, BTC/AM). The class given is cell-based. An excerpt: thallium-flux fluorescence assay (FLIPR, BTC/AM) on Kir6.2/SUR1

The target in a further test is T2, Kir6.1/SUR2B (Homo sapiens, UniProt O60706+Q15842).
T2 construct: gene KCNJ8; full-length human subunits co-expressed stably in HEK293 cells; GenScript vectors; four Kir6.1 plus four SUR2B
The test can be described thus: thallium-flux fluorescence assay (FLIPR, BTC/AM). The class given is cell-based. An excerpt:
thallium-flux fluorescence assay (FLIPR, BTC/AM) on Kir6.1/SUR2B

A further test deals with T3, Kir6.2/SUR2A (Homo sapiens, UniProt O60706+Q14654).
T3 construct: gene KCNJ11; full-length human subunits co-expressed stably in HEK293 cells; GenScript vectors; four Kir6.2 plus four SUR2A
T3 sequence (Q14654 whole entry): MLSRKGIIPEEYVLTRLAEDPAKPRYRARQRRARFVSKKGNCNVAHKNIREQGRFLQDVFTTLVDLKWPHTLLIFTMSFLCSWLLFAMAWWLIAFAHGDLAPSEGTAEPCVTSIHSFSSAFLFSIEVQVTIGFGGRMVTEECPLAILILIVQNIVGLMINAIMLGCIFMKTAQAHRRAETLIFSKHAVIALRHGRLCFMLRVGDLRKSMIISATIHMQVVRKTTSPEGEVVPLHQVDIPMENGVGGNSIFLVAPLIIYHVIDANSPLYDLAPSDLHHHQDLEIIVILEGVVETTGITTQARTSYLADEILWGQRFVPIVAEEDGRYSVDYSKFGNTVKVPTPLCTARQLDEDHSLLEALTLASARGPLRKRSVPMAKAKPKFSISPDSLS
T3 sequence (O60706 whole entry): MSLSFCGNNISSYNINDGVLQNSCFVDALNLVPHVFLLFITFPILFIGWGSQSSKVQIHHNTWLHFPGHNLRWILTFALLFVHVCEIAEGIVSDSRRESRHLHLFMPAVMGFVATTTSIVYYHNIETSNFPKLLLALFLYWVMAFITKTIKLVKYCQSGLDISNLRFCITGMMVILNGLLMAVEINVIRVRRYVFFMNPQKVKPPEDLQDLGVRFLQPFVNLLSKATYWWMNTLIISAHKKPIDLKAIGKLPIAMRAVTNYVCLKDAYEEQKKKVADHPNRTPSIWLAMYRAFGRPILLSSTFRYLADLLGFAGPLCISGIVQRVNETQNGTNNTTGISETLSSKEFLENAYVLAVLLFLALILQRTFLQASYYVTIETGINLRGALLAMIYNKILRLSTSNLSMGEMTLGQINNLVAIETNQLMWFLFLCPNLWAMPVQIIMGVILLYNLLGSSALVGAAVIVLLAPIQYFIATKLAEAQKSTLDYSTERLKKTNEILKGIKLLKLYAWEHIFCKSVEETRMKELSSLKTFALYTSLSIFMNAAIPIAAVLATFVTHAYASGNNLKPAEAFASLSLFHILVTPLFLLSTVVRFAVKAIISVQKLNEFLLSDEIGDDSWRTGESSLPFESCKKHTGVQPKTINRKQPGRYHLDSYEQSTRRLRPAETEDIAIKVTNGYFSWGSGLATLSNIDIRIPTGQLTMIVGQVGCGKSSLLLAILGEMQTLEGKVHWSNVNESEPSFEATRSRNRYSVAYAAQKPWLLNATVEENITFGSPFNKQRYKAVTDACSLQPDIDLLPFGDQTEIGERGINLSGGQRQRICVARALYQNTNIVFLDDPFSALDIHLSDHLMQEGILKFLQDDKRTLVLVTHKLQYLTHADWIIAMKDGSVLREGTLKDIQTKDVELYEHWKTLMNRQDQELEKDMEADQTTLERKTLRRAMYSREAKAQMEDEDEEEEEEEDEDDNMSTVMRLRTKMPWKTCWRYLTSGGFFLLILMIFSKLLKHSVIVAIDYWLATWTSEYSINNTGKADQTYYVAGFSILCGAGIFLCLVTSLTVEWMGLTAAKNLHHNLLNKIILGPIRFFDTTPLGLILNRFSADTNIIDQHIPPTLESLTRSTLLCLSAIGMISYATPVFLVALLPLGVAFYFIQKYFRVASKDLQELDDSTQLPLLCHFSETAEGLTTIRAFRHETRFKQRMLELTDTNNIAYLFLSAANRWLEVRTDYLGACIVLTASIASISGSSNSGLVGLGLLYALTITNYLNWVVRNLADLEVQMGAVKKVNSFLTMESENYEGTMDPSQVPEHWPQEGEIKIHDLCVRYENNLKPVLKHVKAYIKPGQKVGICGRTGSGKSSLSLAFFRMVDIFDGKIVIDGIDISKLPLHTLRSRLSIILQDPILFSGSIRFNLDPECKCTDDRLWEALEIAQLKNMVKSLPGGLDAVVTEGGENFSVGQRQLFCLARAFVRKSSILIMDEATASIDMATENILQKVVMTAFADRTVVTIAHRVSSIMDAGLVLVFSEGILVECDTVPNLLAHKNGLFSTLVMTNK
The experiment in a line: thallium-flux fluorescence assay (FLIPR, BTC/AM). Format: cell-based. An excerpt: (§1) thallium-flux fluorescence assay (FLIPR, BTC/AM) on Kir6.2/SUR2A

Test [1] can be described thus: thallium-flux fluorescence assay (FLIPR, BTC/AM). The class given is cell-based, Homo sapiens. Conditions: read-out: Kir6.2/SUR1 / IC50.
A short description of test [2]: thallium-flux fluorescence assay (FLIPR, BTC/AM). The class given is cell-based, Homo sapiens. To be noted: read-out: Kir6.1/SUR2B / EC50.
Description: as §1

The structures appear in SMILES notation.

T1 sequence (Q14654 whole entry): as the sequence (Q14654 whole entry) above
T1 sequence (Q09428 whole entry): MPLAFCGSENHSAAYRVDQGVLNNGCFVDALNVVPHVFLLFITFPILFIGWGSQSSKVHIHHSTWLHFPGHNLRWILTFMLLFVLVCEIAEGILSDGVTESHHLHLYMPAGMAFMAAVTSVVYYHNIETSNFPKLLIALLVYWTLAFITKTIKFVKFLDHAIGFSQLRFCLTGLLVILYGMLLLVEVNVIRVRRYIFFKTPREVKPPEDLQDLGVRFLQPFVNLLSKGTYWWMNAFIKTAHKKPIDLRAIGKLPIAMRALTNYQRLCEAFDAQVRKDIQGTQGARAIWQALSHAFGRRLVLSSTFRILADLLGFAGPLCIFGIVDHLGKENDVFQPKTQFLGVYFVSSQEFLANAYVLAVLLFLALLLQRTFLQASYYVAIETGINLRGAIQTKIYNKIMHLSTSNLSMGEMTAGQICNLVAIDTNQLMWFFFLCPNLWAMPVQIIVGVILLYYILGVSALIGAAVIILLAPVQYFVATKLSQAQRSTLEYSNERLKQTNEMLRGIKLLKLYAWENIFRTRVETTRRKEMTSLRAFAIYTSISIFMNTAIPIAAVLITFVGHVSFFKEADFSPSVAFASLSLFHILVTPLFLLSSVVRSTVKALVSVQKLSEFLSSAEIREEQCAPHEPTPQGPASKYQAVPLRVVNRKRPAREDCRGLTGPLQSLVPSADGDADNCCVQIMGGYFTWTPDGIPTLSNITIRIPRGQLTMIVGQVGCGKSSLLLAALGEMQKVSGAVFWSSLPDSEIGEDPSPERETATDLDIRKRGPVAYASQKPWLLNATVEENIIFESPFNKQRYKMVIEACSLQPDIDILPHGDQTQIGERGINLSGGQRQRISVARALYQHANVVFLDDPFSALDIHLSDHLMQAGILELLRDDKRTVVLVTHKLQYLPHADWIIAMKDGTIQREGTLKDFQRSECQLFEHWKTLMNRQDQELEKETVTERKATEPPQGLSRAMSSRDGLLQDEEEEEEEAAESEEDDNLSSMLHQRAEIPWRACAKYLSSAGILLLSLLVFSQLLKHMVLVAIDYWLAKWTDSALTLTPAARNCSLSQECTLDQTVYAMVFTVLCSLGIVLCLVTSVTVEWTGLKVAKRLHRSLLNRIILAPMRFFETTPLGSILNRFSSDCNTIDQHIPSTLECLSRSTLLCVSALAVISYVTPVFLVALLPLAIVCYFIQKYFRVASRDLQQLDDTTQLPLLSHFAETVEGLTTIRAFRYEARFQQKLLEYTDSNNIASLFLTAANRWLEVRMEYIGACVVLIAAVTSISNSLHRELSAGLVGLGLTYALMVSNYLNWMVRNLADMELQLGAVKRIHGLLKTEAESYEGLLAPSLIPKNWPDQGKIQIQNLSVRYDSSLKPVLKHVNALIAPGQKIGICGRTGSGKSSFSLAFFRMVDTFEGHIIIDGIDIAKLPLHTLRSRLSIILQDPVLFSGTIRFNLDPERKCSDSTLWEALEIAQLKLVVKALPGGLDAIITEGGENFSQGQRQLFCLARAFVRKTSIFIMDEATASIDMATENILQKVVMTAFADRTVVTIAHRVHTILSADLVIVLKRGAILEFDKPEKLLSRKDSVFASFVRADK

`CC(N/C(=N\C#N)Nc1ccncc1)C(C)(C)C` (centres unmarked) [Pinacidil]: on Kir6.2/SUR1, the EC50 is > 30 µM.

`Cc1ccc(S(=O)(=O)NC(=O)NN2CC3CCCC3C2)cc1` (centres unmarked) [Gliclazide]: the results for the IC50 against Kir6.1/SUR2B, against Kir6.2/SUR1 and on Kir6.2/SUR2A were 24 ± 11 µM, 0.61 ± 0.45 µM and 55 ± 22 µM, respectively.

Consider `COc1ccc(Cl)cc1C(=O)NCCc1ccc(S(=O)(=O)NC(=O)NC2CCCCC2)cc1` [Glibenclamide], for which the IC50 against Kir6.1/SUR2B stood at 0.021 ± 0.014 µM; at Kir6.2/SUR2A, 0.0099 ± 0.0041 µM.

Take `CCC1=C(C)CN(C(=O)NCCc2ccc(S(=O)(=O)NC(=O)N[C@H]3CC[C@H](C)CC3)cc2)C1=O` [Glimepiride]: the IC50 against Kir6.1/SUR2B is 0.033 ± 0.023 µM; against Kir6.2/SUR1, 0.0023 ± 0.0012 µM; against Kir6.2/SUR2A, 0.017 ± 0.009 µM.

As for `CC(O)(C(=O)Nc1ccc(S(=O)(=O)c2ccccc2)cc1)C(F)(F)F` (centres unmarked) [ZM226600], the EC50 on Kir6.1/SUR2B was 0.15 ± 0.09 µM; on Kir6.2/SUR1 it was > 30 µM; at Kir6.2/SUR2A, 2.8 ± 2.2 µM.

As for `C1CCC(/N=C(\NC23CC4CC(CC(C4)C2)C3)N2CCOCC2)CC1` [PNU-37883A], the IC50 against Kir6.1/SUR2B was 0.29 ± 0.21 µM; on Kir6.2/SUR1 it was > 100 µM; in test [1], > 100 µM.

For the molecule `CCCCNC(=O)NS(=O)(=O)c1ccc(C)cc1` [Tolbutamide], the IC50 against Kir6.1/SUR2B came to 41 ± 11 µM; against Kir6.2/SUR1, 7.5 ± 4.1 µM; against Kir6.2/SUR2A it was 71 ± 12 µM.

As for `CC1=NS(=O)(=O)c2cc(Cl)ccc2N1` [Diazoxide], the values for the EC50 on Kir6.1/SUR2B and at Kir6.2/SUR2A were 9.7 ± 5.7 µM and > 100 µM, respectively.

Consider `CC(C)[C@H]1CC[C@H](C(=O)N[C@H](Cc2ccccc2)C(=O)O)CC1` [Nateglinide], for which the IC50 amounted to 14 ± 6.7 µM on Kir6.1/SUR2B, 0.044 ± 0.013 µM on Kir6.2/SUR1 and 16 ± 7.3 µM on Kir6.2/SUR2A.

Consider `CCOc1cc(CC(=O)N[C@@H](CC(C)C)c2ccccc2N2CCCCC2)ccc1C(=O)O` [Repaglinide], for which the IC50 at Kir6.1/SUR2B was 0.0011 ± 0.0006 µM; against Kir6.2/SUR1 it was 0.0039 ± 0.0014 µM; against Kir6.2/SUR2A it was 0.00094 ± 0.00046 µM.

`CC1(NC2=NS(=O)(=O)c3sc(Cl)cc3N2)CC1` [NN414]: the EC50 at Kir6.1/SUR2B is > 30 µM.

Take `CC1(C)Oc2ccc(C#N)cc2[C@H](N(Cc2ncc[nH]2)c2ccc(Cl)cc2)[C@H]1O` [BMS-191095]: the EC50 (at Kir6.1/SUR2B; in test [2]) was > 30 µM each time.

With `CC(=O)N(O)[C@@H]1c2cc(C#N)ccc2OC(C)(C)[C@H]1O` [Y-26763], the EC50 on Kir6.1/SUR2B is 0.075 ± 0.042 µM; at Kir6.2/SUR1 it was 4.1 ± 2.1 µM; at Kir6.2/SUR2A, 1.3 ± 0.97 µM.

Turning to `CN(CCOc1ccc(CC2SC(=O)NC2=O)cc1)c1ccccn1` (centres unmarked) [Rosiglitazone], the IC50 is 8.5 ± 4.6 µM against Kir6.1/SUR2B, > 100 µM at Kir6.2/SUR1 and > 100 µM in test [1].

On to `O=C1CCCC2=C1[C@H](c1ccc(F)c(Br)c1)C1=C(CCS1(=O)=O)N2` [A-278637], for which the EC50 was 0.17 ± 0.089 µM on Kir6.1/SUR2B, > 30 µM at Kir6.2/SUR1 and 1.6 ± 0.89 µM on Kir6.2/SUR2A.

Consider `Cc1c(C)c2c(c(C)c1O)CCC(C)(COc1ccc(CC3SC(=O)NC3=O)cc1)O2` (centres unmarked) [Troglitazone], for which the IC50 came to 10 ± 6.5 µM on Kir6.1/SUR2B, 14 ± 3.1 µM against Kir6.2/SUR1 and 30 ± 16 µM against Kir6.2/SUR2A.

Regarding `COc1ccc2c(c1)C(=O)N(CCc1ccc(S(=O)(=O)NC(=O)NC3CCCCC3)cc1)C(=O)C2(C)C` [Gliquidone], the IC50 at Kir6.1/SUR2B was found to be 4.5 ± 3.6 µM; on Kir6.2/SUR1 it was 0.0069 ± 0.005 µM; against Kir6.2/SUR2A, 0.78 ± 0.58 µM.

Regarding `CCC(C)(C)NC(=NC#N)Nc1cccnc1` [P1075], the EC50 on Kir6.1/SUR2B was 0.052 ± 0.024 µM; at Kir6.2/SUR1, > 30 µM; on Kir6.2/SUR2A it was 0.51 ± 0.27 µM.
